US11111240B2, “Sultam compound and application method thereof” (Chia Tai Tianqing Pharmaceutical Group Co., Ltd., priority 2016, dated 2021)
Where two headings read alike, the source gives them in different places.

Legend:
U87/IDH1 (R132H) cells = test: Inhibitory activity on IDH1-mutated U87 cells (2-HG determination); type: cell-based; details: Homo sapiens, U-87 MG
Protocol: In the presence of 2-HG, phosphoglycerate dehydrogenase PHGDH can reduce NAD to NADPH, and the latter may be quantitatively determined by lipoamide dehydrogenase and the substrate thereof, resazurin.
U87 cell is a human glioblastoma cell line with an IDH1 mutation (R132H).
Cells was digested with trypsin, and inoculated into a 6-well plate at a density of 5×10^5, and cultured overnight in an incubator at 37° C. […] Culture medium of each sample was sucked out and centrifuged at 1000 rpm for 10 min. The supernatant was sucked out to detect the content of 2-HG therein. Additionally, cells were washed with PBS (phosphate buffered saline), digested with trypsin and collected. After the collected cells were washed with PBS for one time, the determination of intracellular 2-HG content was performed.
The method for determining the intracellular 2-HG was as follows: cells were re-suspended with 300 μL reaction buffer (40 mM Tris-HCl, pH 8.5; 150 mM NaCl) and disrupted by ultrasonication. They were centrifuged for 10 min at 12,000 rpm and 4° C. to remove insoluble substances. 25 μL supernatant was sucked out to determine the protein concentration by a BCA kit. […]
The measured fluorescence values were compared after being corrected with the protein concentrations of the corresponding samples.

[1] = Pharmacokinetic experiments in male SD rats, single peroral administration; type: in vivo, rat; details: for Cmax / Tmax / AUC(0-inf) / half-life: plasma; for AUC(0-inf): read-out: AUCINF—obs
Protocol: Male SD rats were from Beijing Vital River Laboratory Animal Technology Co., Ltd., and divided into groups (3 rats per group). The rats were intragastrically administered with the test sample suspension (5 mg/kg) via a single peroral administration, respectively. The animals were fasted overnight before this study. The fasting time period was from 10 hours before administration to 4 hours after administration. Blood samples were taken at 0.25, 0.5, 1, 2, 4, 6, 8 and 24 hours after administration. After the rats were anesthetized with isoflurane using an anesthesia machine for small animal, and then 0.3 mL whole blood samples were taken from the fundus venous plexus. The blood samples were placed in heparin anticoagulant tubes, and centrifuged for 5 min at 4° C. and 4000 rpm. The plasma was transferred to centrifuge tubes, and stored at −80° C. until analysis. The samples in plasma were extracted through protein precipitation. The liquid extract was analyzed by LC-MS/MS, wherein HPLC conditions were as follows: flow rate 0.4 mL/min; mobile phase A: water/formic acid (99.9/0.1, v/v); mobile phase B: acetonitrile/formic acid (99.9/0.1, v/v); injection volume: 5 μL; column temperature: RT; autosampler temperature: RT; run time: 2.5 min.

IDH1 (R132C) = IDH1 (R132C) (Homo sapiens (Human), UniProt O75874, R132C); test: Enzyme assay, IDH1m inhibition (NADPH decrease, diaphorase/resazurin); type: biochemical; details: 40 nM enzyme, 16 h pre-incubation at 23° C.
Excerpt: (§1) Resazurin is a traditional redox dye, and after a redox reaction, it can be reduced from a blue resazurin without fluorescence to a pink fluorescent substance, resorufin, which can be measured and quantified with relative fluorescence unit (RFU) of fluorophotometer (Ex=530-570 nm, Em=590-620 nm). At present, resazurin is widely used for determining the viability of bacteria, cells, etc. and the enzyme activity detection of oxidoreductase. We detected the decrease of cofactor NADPH to determine the inhibitory activity of a compound against IDH1m and detected the generation of cofactor NADPH to determine the inhibitory activity of a compound against IDH WT. The compound was pre-incubated with IDH1m and NADPH, and then the reaction was initiated by adding α-KG and performed for certain time under a linear condition. Then, diaphorase (lipoamide dehydrogenase) and the corresponding substrate resazurin were added thereto for detection. Lipoamide dehydrogenase terminated the IDH1m reaction by decreasing the available cofactor NADPH, which oxidized NADPH to NADP, and reduced resazurin to high fluorescent resorufin. The amount of the remaining cofactor NADPH after a specific reaction time was quantified via an easily detectable fluorophore.
(§2) The specific operation was as follows: 2.5 μl of the compound diluted in a 3-fold gradient was added to a 384-well plate, followed by adding 5 μl of the reaction buffer (20 mM Tris-HCl, pH 7.5; 150 mM NaCl; 10 mM MgCl2; 0.4 mg/mL BSA (Bovine Serum Albumin) and 2 mM DTT (dithiothreitol)) containing 40 nM IDH1 (R132H/R132C) and 20 μM NADPH. Then, the above test mixture was incubated at 23° C. for 16 hours, and then 2.5 μl of the reaction buffer containing 4 mM α-KG was added to initiate the reaction. After they were incubated for 60 minutes at room temperature, 5 μl of the termination mixture (0.4 U/ml diaphorase and 20 μM resazurin) formulated with the reaction buffer was added to convert resazurin to resorufin, so as to measure the amount of the remaining NADPH. After incubating at 23° C. for 10 minutes, fluorescence values were determined through Flexstation 3 at Ex535/Em595. The enzyme activity of each compound was respectively determined at 12 concentrations, and the data were calculated using the software GraFit6.0 (Erithacus Software) to obtain the IC50 value of each compound.

IDH1 (R132H) = IDH1 (R132H) (Homo sapiens (Human), UniProt O75874, R132H); test: as above; type: biochemical; details: 40 nM enzyme, 16 h pre-incubation at 23° C.
Excerpt: as §1, §2

[2] = rat, male SD rats, oral 5 mg/kg, 0.5% MC, 0.2% Tween80

Sequence of IDH1 (R132H) (O75874 whole entry R132H): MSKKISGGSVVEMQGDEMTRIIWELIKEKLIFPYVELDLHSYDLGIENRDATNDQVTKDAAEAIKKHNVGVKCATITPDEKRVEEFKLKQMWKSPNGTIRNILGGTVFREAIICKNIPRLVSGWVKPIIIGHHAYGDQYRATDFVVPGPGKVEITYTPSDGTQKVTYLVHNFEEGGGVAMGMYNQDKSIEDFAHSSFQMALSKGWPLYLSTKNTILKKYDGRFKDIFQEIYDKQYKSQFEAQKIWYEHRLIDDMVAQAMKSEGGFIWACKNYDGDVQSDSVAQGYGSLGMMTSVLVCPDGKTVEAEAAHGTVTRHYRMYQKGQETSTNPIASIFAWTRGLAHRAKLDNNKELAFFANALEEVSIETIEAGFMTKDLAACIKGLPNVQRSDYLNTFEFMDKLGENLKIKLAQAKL
Sequence of IDH1 (R132C) (O75874 whole entry R132C): as the sequence (O75874 whole entry R132H) above, with H132C counted along it

| SMILES | IC50 (U87/IDH1 (R132H) cells) [nM] | Cmax [1, 2] [ng/mL] | Tmax [1, 2] [h] | AUC(0-inf) [1, 2] [ng·h/mL] | IC50 (IDH1 (R132C)) [nM] | IC50 (IDH1 (R132H)) [nM] | other results |
| --- | --- | --- | --- | --- | --- | --- | --- |
| N#Cc1ccnc(N2C(=O)CC[C@H]2C(=O)N(c2cncc(F)c2)[C@H](C(=O)NC2CC(F)(F)C2)c2ccccc2Cl)c1 [AG-120, ivosidenib, reference compound] | 46 | 719 | 0.67 | 6320 |  |  | half-life ([1]; rat, male SD rats, oral 5 mg/kg, 0.5% MC, 0.2% Tween80, read-out: T1/2 (converted)): 197 min |
| N#Cc1ccnc(N2[C@H](C(=O)N(c3cncc(F)c3)[C@H](C(=O)NC3CC(F)(F)C3)c3ccccc3Cl)CCS2(=O)=O)c1 [Example 2, (S)—N—((S)-1-(2-chlorophenyl)-2-((3,3-difluorocyclobutyl)amino)-2-oxoethyl)-2-(4-cyanopyridin-2-yl)-N-(5-fluoropyridin-3-yl)-isothiazolidine-3-carboxamide 1,1-dioxide] | 6.7 |  |  |  | < 20 | < 20 |  |
| N#Cc1ccnc(N2[C@H](C(=O)N(c3cccc(F)c3)[C@H](C(=O)NC3CC(F)(F)C3)c3ccccc3Cl)CCS2(=O)=O)c1 [Example 12, (S)—N—((S)-1-(2-chlorophenyl)-2-((3,3-difluorocyclobutyl)amino)-2-oxoethyl)-2-(4-cyanopyridin-2-yl)-N-(3-fluorophenyl)-isothiazolidine-3-carboxamide 1,1-dioxide] |  | 556 | 4 | 10600 | < 20 | < 20 | T1/2 ([1]; male SD rats, oral 5 mg/kg, 0.5% MC, 0.2% Tween80): 10.7 h; half-life ([1]; male, SD, 5 mg/kg, rat, oral, read-out: half-life (converted)): 642 min; drug exposure in plasma compared with AG-120 ([1]; rat, same oral dose): far higher than that of AG-120 |
| CN1C[C@@H](C(=O)N(c2cccc(F)c2)C(C(=O)NC2CC(F)(F)C2)c2ccccc2Cl)N(c2cc(C#N)ccn2)S1(=O)=O (stereo partly drawn) [Example 25, (3S)—N-(1-(2-chlorophenyl)-2-((3,3-difluorocyclobutyl)amino)-2-oxoethyl)-2-(4-cyanopyridin-2-yl)-N-(3-fluorophenyl)-5-methyl-1,2,5-thiadiazolidine-3-carboxamide 1,1-dioxide] |  |  |  |  |  | 20 |  |
| N#Cc1ccnc(N2[C@H](C(=O)N(c3cccc(S(N)(=O)=O)c3)C(C(=O)NC3CCCCC3)c3ccccc3Cl)CCS2(=O)=O)c1 (stereo partly drawn) [Example 26, (3S)—N-(1-(2-chlorophenyl)-2-(cyclohexylamino)-2-oxoethyl)-2-(4-cyanopyridin-2-yl)-N-(3-aminosulfonylphenyl)-isothiazolidine-3-carboxamide 1,1-dioxide] |  |  |  |  |  | < 20 |  |
| N#Cc1ccnc(N2[C@H](C(=O)N(c3cc(F)c[n+]([O-])c3)[C@H](C(=O)NC3CC(F)(F)C3)c3ccccc3Cl)CCS2(=O)=O)c1 [Example 27, 3-((S)—N—((S)-1-(2-chlorophenyl)-2-((3,3-difluorocyclobutyl)amino)-2-oxoethyl)-2-(4-cyanopyridin-2-yl)-1,1-dioxoisothiazolidine-3-carboxamido)-5-fluoropyridine-1-oxide] |  |  |  |  |  | 20 |  |
